Assays:
[1] = system: middle cerebral artery (MCA) occlusion model mice; assay: Evaluation of therapeutic effect on ischemia-reperfusion brain damage (MCA occlusion model, single i.v. dose after reperfusion); assay type: in vivo, male ddY mice; details: infarct volume at 24 h
Text: Thus, a model evaluated for therapeutic effect of ischemia-reperfusion brain damage was constructed by administering a drug after reperfusion in the MCA occlusion model, and the effect of the test compound as a therapeutic drug was investigated: the therapeutic effect evaluation model reflects the direct damage by reactive oxygen species (ROIs) and the process to the secondary oxidative stress and inflammatory response due to ROIs. (2) Evaluation Method for Therapeutic Effect of Ischemia-Reperfusion Brain Damage With the use of male ddY mice (25-30 g, 6-7 weeks old), middle cerebral artery (MCA) occlusion model mice were prepared according to the method of Koizumi et al. (“Strokes”, Vol. 8, pp 1-8, 1986). The MCA occlusion was 4 hours, and a single dose of drug solution was intravenously administered 6 or 10 hours after the start of ischemia (i.e., 2 hours or […]). Brain slice samples were prepared 24 hours after the start of infarction and stained with triphenyltetrazolium chloride (TTC staining), and then the cerebral infarct volume was measured from the brain slice samples by image processing.

[2] = system: middle cerebral artery (MCA) occlusion model mice; assay: Evaluation of preventive effect on ischemia-reperfusion brain damage (MCA occlusion model, drug i.v. immediately before and 3 h after infarction); assay type: in vivo, male ddY mice; details: 4 h MCA occlusion, infarct volume 24 h after start of occlusion (TTC)
Experimental: In addition, a drug was administered immediately before infarction and during infarction in the MCA occlusion model, and the effect as a preventive drug was also investigated.
(1) Evaluation Method for Preventive Effect of Ischemia-Reperfusion Brain Damage
With the use of male ddY mice (25-30 g, 6-7 weeks old), middle cerebral artery (MCA) occlusion model mice were prepared according to the method of Koizumi et al. (“Strokes”, Vol. 8, pp 1-8, 1986). The MCA occlusion was carried out for 4 hours, a test drug solution was intravenously administered twice, namely, immediately before infarction and 3 hours after infarction. Brain slice samples were prepared 24 hours after the start of infarction and stained with triphenyltetrazolium chloride (TTC staining), and then the cerebral infarct volume was measured from the brain slice samples by image processing.

[3] = system: mouse middle cerebral artery (MCA) occlusion model; details: i.v. twice, immediately before infarction and during infarction; prophylactic; cited from earlier work
[4] = single i.v. dose 20 μmol/kg 6 hours after start of ischemia
[5] = i.v. 20 mmol/kg×2 doses (so in the source)
[6] = single i.v. dose 2 μmol/kg 6 hours after start of ischemia

Compound	suppression of the infarct volume [1, 4]	suppression of the infarct volume ([2]; i.v. 2 μmol/kg×2 doses)	suppression of the infarct volume ([2]; i.v. 20 μmol/kg×2 doses)	suppression of the infarct volume ([1]; single i.v. dose 20 μmol/kg 10 hours after start of ischemia)	suppression of the infarct volume [2, 5]	infarct inhibitory effect [3]	suppression of the infarct volume [1, 6]
2R-γ-tocopheryl phosphate disodium salt [γ-TPS]	a significant suppression of the infarct volume was observed						
CC(C)=CCC/C(C)=C/CC/C(C)=C/CO [FO, (2E,6E) farnesol, reference compound]		significant suppression of the infarct volume was not observed	significantly suppressed				
CC(C)=CCCC(C)=CCCC(C)=CCOC(=O)CN(C)C.Cl [FODMG, farnesol N,N-dimethylglycinate hydrochloride]	significantly suppressed	significantly suppressed		significantly suppressed	significantly suppressed		
CC1=NN(c2ccccc2)C(=O)C1 [edaravone, reference compound]		significantly suppressed	a significant effect was not observed				
CC(C)=CCC/C(C)=C/CC/C(C)=C/CC[C@]1(C)CCc2c(C)c(O)c(C)c(C)c2O1 [α-T3, 2R-α-tocotrienol]						excellent infarct inhibitory effect	
CC(C)=CCC/C(C)=C/CC/C(C)=C/CC[C@]1(C)CCc2c(C)c(OC(=O)CN(C)C)c(C)c(C)c2O1.Cl [α-T3DMG, 2R-α-tocotrienyl N,N-dimethylglycinate hydrochloride]	significantly suppressed	a significant suppression of the infarct volume was observed	a significant suppression of the infarct volume was observed				significantly suppressed
Cc1c(C)c2c(c(C)c1O)CC[C@@](C)(CCC[C@H](C)CCC[C@H](C)CCCC(C)C)O2 [α-Toc, 2R-α-tocopherol, reference compound]		a significant suppression of the infarct volume was not observed	significantly suppressed				
Cc1c(OC(=O)CN(C)C)cc2c(c1C)O[C@](C)(CCC[C@H](C)CCC[C@H](C)CCCC(C)C)CC2.Cl [γ-TDMG, 2R-γ-tocopheryl N,N-dimethylglycinate hydrochloride]	significantly suppressed	a significant suppression of the infarct volume was observed			a significant suppression of the infarct volume was observed		significantly suppressed
Cc1c(O)cc2c(c1C)O[C@](C)(CCC[C@H](C)CCC[C@H](C)CCCC(C)C)CC2 [γ-Toc, 2R-γ-tocopherol, reference compound]	significantly suppressed	significantly suppressed	significantly suppressed			excellent infarct inhibitory effect	significantly suppressed

From patent US8242302B2, “Inhibitor of ischemic disorders” (Fukuoka University, priority 2007, dated 2012)
